Data from ChEMBL document CHEMBL1221220, “Transport and signaling via the amino acid binding site of the yeast Gap1 amino acid transceptor” (Nat Chem Biol, 2009).
Changes are numbered by the printed parent chain. Activity calls are given as the source filed them. The calls are words filed in the database; no cut-off is given here.

Key:
[1] = tested on: T1, General amino-acid permease GAP1 (Saccharomyces cerevisiae), P19145 [N391C]; test: Induction of yeast Gap1 N391C mutant-mediated trehalose activation at 10 mM
T1 sequence (whole entry): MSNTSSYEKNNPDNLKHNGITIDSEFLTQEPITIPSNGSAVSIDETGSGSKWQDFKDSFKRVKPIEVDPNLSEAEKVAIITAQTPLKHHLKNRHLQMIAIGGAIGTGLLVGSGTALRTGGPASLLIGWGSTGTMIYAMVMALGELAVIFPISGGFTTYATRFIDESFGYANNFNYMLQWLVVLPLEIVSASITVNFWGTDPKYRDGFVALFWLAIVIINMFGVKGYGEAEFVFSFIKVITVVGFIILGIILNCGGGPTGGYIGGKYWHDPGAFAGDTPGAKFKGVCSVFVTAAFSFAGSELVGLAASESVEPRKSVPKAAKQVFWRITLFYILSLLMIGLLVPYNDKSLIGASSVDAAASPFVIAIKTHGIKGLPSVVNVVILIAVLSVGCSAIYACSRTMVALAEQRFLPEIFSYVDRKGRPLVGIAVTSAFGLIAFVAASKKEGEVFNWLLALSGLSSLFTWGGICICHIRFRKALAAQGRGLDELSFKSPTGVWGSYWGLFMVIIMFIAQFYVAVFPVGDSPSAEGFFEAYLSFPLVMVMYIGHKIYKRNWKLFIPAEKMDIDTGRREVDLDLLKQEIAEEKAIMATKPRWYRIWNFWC

[2] = tested on: T2, General amino-acid permease GAP1 (Saccharomyces cerevisiae), P19145 [R399C]; test: Activation of yeast Gap1 R399C mutant-mediated amino acid uptake at 10 mM
T2 sequence (whole entry): T1 sequence (whole entry) with C391N, R399C

[3] = tested on: T3, General amino-acid permease GAP1 (Saccharomyces cerevisiae), P19145 [G390C]; test: Induction of yeast Gap1 G390C mutant-mediated trehalose activation at 2 mM in presence of 10 mM MTSEA treated before compound addition
T3 sequence (whole entry): T1 sequence (whole entry) with G390C, C391N

[4] = tested on: T4, General amino-acid permease GAP1 (Saccharomyces cerevisiae), P19145 [L383C]; test: Induction of yeast Gap1 L383C mutant-mediated amino acid uptake at 2 mM in presence of 10 mM MTSEA treated before compound addition
T4 sequence (whole entry): T1 sequence (whole entry) with L383C, C391N

What does the source list for `NC(=O)NCCC[C@H](N)C(=O)O`?
Activity [1]: inactive; Activity [2]: inactive; inhibition [3]: Active; Activity [4]: Active
